According to ChEMBL document CHEMBL1909046, “DrugMatrix in vitro pharmacology data”:

Columns and labels:
[1] = DRUGMATRIX: Calcium Channel Type L, Dihydropyridine radioligand binding (ligand: [3H] Nitrendipine); format: cell membranes, Rattus norvegicus, Wistar, Cerebral cortex, Membrane; settings: Not Active = under 50% inhibition at 10 µM
[2] = biological target: T1, Angiotensin-converting enzyme (Oryctolagus cuniculus, UniProt P12822); format: tissue-based, Lung;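 note: enzymatic inhibition of angiotensin-converting enzyme measured with FAPGG as the substrate; in other assays of this panel Not Active means under 50% inhibition at 10 µM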
T1 sequence (P12822 whole entry): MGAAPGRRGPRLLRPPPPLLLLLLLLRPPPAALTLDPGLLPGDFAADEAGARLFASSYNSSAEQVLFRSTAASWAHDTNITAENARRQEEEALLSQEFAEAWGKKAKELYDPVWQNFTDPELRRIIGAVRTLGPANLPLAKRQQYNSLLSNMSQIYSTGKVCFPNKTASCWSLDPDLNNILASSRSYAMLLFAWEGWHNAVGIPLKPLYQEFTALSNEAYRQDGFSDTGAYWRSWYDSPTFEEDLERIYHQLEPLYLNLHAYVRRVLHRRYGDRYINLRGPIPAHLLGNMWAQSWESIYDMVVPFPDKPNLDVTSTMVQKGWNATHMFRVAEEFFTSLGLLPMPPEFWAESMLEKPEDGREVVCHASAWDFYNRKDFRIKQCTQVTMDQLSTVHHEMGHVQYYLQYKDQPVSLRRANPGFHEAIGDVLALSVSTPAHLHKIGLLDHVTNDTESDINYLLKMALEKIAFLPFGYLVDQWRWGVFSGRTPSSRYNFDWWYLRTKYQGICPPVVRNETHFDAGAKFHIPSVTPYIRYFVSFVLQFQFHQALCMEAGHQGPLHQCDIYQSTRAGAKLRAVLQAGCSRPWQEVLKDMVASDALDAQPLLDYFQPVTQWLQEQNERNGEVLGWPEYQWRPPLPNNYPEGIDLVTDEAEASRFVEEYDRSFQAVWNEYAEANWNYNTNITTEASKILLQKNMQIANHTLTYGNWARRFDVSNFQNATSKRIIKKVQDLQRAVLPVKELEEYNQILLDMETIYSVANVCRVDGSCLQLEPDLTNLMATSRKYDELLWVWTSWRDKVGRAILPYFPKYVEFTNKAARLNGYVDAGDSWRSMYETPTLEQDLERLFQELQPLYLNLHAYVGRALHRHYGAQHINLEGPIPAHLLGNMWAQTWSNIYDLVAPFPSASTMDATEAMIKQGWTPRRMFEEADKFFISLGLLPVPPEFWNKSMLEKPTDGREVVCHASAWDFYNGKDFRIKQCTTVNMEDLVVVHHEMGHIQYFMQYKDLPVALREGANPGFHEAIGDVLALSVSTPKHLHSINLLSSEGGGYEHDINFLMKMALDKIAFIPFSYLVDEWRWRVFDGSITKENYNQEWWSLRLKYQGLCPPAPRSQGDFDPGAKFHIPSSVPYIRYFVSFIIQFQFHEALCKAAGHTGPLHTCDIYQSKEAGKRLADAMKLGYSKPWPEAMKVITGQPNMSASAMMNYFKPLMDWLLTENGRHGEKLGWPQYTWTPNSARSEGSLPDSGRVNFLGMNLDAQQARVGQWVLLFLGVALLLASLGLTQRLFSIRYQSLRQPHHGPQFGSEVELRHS

D(1A) dopamine receptor = D(1A) dopamine receptor (Homo sapiens, UniProt P21728); assay: DRUGMATRIX: Dopamine D1 radioligand binding (ligand: [3H] SCH-23390); format: cell membranes, CHO, Membrane; settings: Not Active = under 50% inhibition at 10 µM
Adenosine receptor A3 = biological target: T2, Adenosine receptor A3 (Homo sapiens, UniProt P0DMS8); format: cell membranes, CHO-K1, Membrane; settings: cho-k1;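 note: radioligand binding assay with AB-MECA serving as the labeled ligand; in other assays of this panel Not Active means under 50% inhibition at 10 µM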
T2 sequence (P0DMS8 whole entry): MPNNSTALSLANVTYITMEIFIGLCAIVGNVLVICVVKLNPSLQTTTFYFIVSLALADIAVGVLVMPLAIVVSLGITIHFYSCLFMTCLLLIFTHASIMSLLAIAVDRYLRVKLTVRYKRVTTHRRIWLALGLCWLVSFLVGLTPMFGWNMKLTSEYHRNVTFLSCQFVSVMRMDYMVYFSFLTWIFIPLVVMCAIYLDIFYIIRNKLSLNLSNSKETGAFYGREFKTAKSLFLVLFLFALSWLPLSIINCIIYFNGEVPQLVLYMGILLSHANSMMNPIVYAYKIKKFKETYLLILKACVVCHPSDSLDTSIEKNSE

[3] = biological target: T3, 5-hydroxytryptamine receptor 2C (Homo sapiens, UniProt P28335); assay: DRUGMATRIX: Serotonin (5-Hydroxytryptamine) 5-HT2C radioligand binding (ligand: [3H] Mesulergine); format: cell membranes, CHO-K1, Membrane; settings: Not Active = under 50% inhibition at 10 µM; for Ki: read-out: Ki
T3 sequence (P28335 whole entry): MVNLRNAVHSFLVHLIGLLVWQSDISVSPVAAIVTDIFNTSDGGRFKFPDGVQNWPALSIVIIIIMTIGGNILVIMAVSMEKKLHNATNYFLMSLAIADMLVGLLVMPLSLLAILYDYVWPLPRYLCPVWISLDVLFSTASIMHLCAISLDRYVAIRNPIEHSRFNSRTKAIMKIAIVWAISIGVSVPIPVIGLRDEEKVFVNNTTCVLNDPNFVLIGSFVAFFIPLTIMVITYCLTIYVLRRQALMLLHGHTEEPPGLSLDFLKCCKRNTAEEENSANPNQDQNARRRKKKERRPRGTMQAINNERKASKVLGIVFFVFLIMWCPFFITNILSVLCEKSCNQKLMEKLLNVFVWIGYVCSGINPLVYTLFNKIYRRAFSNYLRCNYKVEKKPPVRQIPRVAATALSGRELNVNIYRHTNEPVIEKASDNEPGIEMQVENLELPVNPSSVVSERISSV

[4] = biological target: Matrix metalloproteinase-9 (Homo sapiens, UniProt P14780); format: cell-based;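 note: inhibition of isolated MMP-9 enzyme activity toward a synthetic peptide substrate, from the DrugMatrix protease screening panel; in other assays of this panel Not Active means under 50% inhibition at 10 µM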
Chain of Matrix metalloproteinase-9 (P14780 whole entry): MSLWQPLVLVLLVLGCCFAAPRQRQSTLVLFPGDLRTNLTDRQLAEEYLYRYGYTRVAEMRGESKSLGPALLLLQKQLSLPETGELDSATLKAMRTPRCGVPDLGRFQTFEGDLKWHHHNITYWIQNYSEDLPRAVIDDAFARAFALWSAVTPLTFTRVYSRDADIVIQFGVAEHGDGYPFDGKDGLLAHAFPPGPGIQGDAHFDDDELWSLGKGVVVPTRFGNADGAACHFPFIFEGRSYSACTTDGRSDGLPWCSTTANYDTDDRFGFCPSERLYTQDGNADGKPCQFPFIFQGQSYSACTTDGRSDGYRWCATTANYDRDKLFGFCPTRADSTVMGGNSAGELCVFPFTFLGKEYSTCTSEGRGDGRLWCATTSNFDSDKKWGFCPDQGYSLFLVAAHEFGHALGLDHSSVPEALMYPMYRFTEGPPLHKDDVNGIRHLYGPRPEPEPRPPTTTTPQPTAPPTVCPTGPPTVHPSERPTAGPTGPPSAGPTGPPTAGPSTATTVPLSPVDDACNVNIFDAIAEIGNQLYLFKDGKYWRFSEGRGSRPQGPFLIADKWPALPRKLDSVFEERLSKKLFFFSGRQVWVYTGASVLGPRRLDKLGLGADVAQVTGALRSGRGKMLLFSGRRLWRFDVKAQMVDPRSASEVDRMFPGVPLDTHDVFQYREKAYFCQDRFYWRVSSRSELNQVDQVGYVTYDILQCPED

Chain of D(1A) dopamine receptor (P21728 whole entry): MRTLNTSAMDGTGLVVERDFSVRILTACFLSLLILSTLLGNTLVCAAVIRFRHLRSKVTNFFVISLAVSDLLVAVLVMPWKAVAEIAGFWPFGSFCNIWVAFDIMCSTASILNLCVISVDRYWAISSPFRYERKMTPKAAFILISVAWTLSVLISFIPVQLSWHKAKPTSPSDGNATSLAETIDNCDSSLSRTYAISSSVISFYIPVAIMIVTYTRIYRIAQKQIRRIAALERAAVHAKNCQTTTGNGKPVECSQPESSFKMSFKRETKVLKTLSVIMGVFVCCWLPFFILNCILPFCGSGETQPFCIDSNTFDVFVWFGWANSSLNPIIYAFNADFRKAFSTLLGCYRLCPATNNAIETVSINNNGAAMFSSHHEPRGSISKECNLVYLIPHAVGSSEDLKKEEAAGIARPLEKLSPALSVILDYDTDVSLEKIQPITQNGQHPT

Row | SMILES | IC50 [1] | Ki [1] | IC50 [2] | IC50 (D(1A) dopamine receptor; cho) | IC50 (Adenosine receptor A3) | IC50 ([3]; cho-k1) | IC50 [4] | IC50 ([3]; read-out: IC50) | Ki [3] | IC50 (D(1A) dopamine receptor; read-out: IC50) | Ki (D(1A) dopamine receptor; read-out: Ki)
1 | Cc1cc(O)cc(C)c1Cl [CHLOROXYLENOL] | Not Active | Not Active | Not Active | Not Active | Not Active | Not Active | Not Active |  |  |  | 
2 | CCCNC(=O)NS(=O)(=O)c1ccc(Cl)cc1 [CHLORPROPAMIDE] | Not Active | Not Active | Not Active | Not Active | Not Active | Not Active | Not Active |  |  |  | 
3 | NS(=O)(=O)c1cc(C2(O)NC(=O)c3ccccc32)ccc1Cl (stereo not drawn) [CHLORTHALIDONE] | Not Active | Not Active | Not Active | Not Active | Not Active | Not Active | Not Active |  |  |  | 
4 | O=C(O)CC(O)(CC(=O)O)C(=O)O [CITRIC ACID] | Not Active | Not Active | Not Active | Not Active | Not Active | Not Active | Not Active |  |  |  | 
5 | CC(C)NCC(O)c1ccccc1Cl (stereo not drawn) [CLORPRENALINE] | Not Active | Not Active | Not Active | Not Active | Not Active | Not Active | Not Active |  |  |  | 
6 | CN1CCN(C(c2ccccc2)c2ccccc2)CC1 [CYCLIZINE] | Not Active | Not Active | Not Active | Not Active | Not Active |  | Not Active | 1020 nM | 535 nM |  | 
7 | CN1C[C@@H]2C[C@H]1CN2c1cc2c(cc1F)c(=O)c(C(=O)O)cn2C1CC1 [DANOFLOXACIN] | Not Active | Not Active | Not Active | Not Active | Not Active | Not Active | Not Active |  |  |  | 
8 | COc1cccc2c1C(=O)c1c(O)c3c(c(O)c1C2=O)C[C@@](O)(C(C)=O)C[C@@H]3O[C@H]1C[C@H](N)[C@H](O)[C@H](C)O1 [DAUNORUBICIN] | Not Active | Not Active | Not Active | Not Active | Not Active | Not Active | Not Active |  |  |  | 
9 | O=C(O)c1cc(-c2ccc(F)cc2F)ccc1O [DIFLUNISAL] | Not Active | Not Active | Not Active | Not Active | Not Active | Not Active | Not Active |  |  |  | 
10 | C[S+](C)[O-] [DIMETHYL SULFOXIDE] | Not Active | Not Active | Not Active | Not Active | Not Active | Not Active | Not Active |  |  |  | 
11 | CC1=NN(c2ccccc2)C(=O)C1 [EDARAVONE] | Not Active | Not Active | Not Active | Not Active | Not Active | Not Active | Not Active |  |  |  | 
12 | CC(C)C[C@H]1C(=O)N2CCC[C@H]2[C@]2(O)O[C@](NC(=O)[C@@H]3C=C4c5cccc6[nH]cc(c56)C[C@H]4N(C)C3)(C(C)C)C(=O)N12 [ERGOCRYPTINE] | Not Active | Not Active | Not Active |  | Not Active |  | Not Active | 147 nM | 77 nM | 403 nM | 202 nM
13 | C[C@]12CC[C@@H]3c4ccc(O)cc4CC[C@H]3[C@@H]1C[C@@H](O)[C@@H]2O [ESTRIOL] | Not Active | Not Active | Not Active | Not Active | Not Active | Not Active | Not Active |  |  |  | 
14 | C#C[C@]1(O)CC[C@H]2[C@@H]3CCC4=CC(=O)CC[C@]4(C)[C@H]3CC[C@@]21C [ETHISTERONE] | Not Active | Not Active | Not Active | Not Active | Not Active | Not Active | Not Active |  |  |  | 
15 | CC(O)(P(=O)(O)O)P(=O)(O)O [ETIDRONIC ACID] | Not Active | Not Active | Not Active | Not Active | Not Active | Not Active | Not Active |  |  |  | 
